Where only a bound is given, the exact number is not on record here.

In experiment [1] the target is T1, Replicase polyprotein 1ab (Severe acute respiratory syndrome coronavirus 2, UniProt P0DTD1). In words: Inhibition of SARS-CoV-2 papain-like protease.
Experiment [2] addresses T1, Replicase polyprotein 1ab. Nature of the experiment: Inhibition of SARS-CoV-2 papain-like protease using fluorescent substrate preincubated for 1 hr by fluorescence based assay.
The target in experiment [3] is T1, Replicase polyprotein 1ab. In words: Inhibition of SARS-CoV-2 papain-like protease assessed as viral protease-mediated deubiquitination using ubiquitinated substrate incubated for 16 to 18 hrs by fluorescence based assay.
Experiment [4] addresses T1, Replicase polyprotein 1ab. In words: Inhibition of TAP-tagged SARS-CoV-2 papain-like protease nsp123.
Experiment [5] addresses T1, Replicase polyprotein 1ab. In words: Inhibition of TAP-tagged SARS-CoV-2 papain-like protease nsp23.
Experiment [6] deals with T1, Replicase polyprotein 1ab. In words: Inhibition of SARS-CoV-2 papain-like protease-mediated de-ISGylation.
In experiment [7] the target is T1, Replicase polyprotein 1ab. In words: Binding affinity to CM5 chip immobilized full-length wild-type SARS-CoV-2 papain-like protease (1564 to 1878 residues) expressed in Escherichia coli BL21 (DE3) assessed as dissociation constant incubated for 90 secs by SPR analysis.
Experiment [8] addresses T1, Replicase polyprotein 1ab. In words: Inhibition of N-terminal 3xFlag-His6-tagged SARS-CoV-2 papain-like protease nsp3 (1564 to 1878 residues) expressed in baculovirus infected Sf9 insect cells using Pro3 as substrate by fluorescence based assay.
Experiment [9] addresses T1, Replicase polyprotein 1ab. Nature of the experiment: Inhibition of C-terminal His-tagged SARS-CoV-2 BetaCoV/Wuhan/WIV04/2019 papain-like protease (1564 to 1876 residues) expressed in Escherichia coli BL21 (DE3) using Dabcyl-FTLRGG/APTKV as substrate preincubated for 1 hr followed by substrate addition measured after 3 hrs by FRET assay.
The target in experiment [10] is T1, Replicase polyprotein 1ab. Nature of the experiment: Inhibition of recombinant SARS-CoV-2 papain-like protease using Z-Arg-Leu-Arg-Gly-Gly-AMC as substrate by enzymatic assay.
Experiment [11] addresses T1, Replicase polyprotein 1ab. In words: Inhibition of recombinant SARS-CoV-2 main protease using ATLQAIAS as substrate preincubated for 15 mins by enzymatic assay.
Experiment [12] deals with T1, Replicase polyprotein 1ab. In words: Inhibition of SARS-CoV-2 papain-like protease expressed in Escherichia coli BL21 (DE3) using Z-LRGG-AMC/Z-RLRGG-AMC as substrate preincubated for 30 mins by enzymatic assay.
The target in experiment [13] is T1, Replicase polyprotein 1ab. Nature of the experiment: Inhibition of SARS-CoV-2 papain-like protease using ISG15-Rh as substrate.
The target in experiment [14] is T1, Replicase polyprotein 1ab. Nature of the experiment: Inhibition of 6xHis-tagged SARS-CoV-2 papain-like protease expressed in Escherichia coli BL21 (DE3) using ISG15-FITC as substrate incubated for 30 mins by fluorescence polarization assay. Background: In fluorescence polarisation assays a small probe gives low polarisation when free and higher when bound to something large.

Experiment [15] addresses T1, Replicase polyprotein 1ab. Nature of the experiment: Binding affinity to biotin-tagged SARS-CoV-2 papain-like protease expressed in Escherichia coli BL21 (DE3) assessed as dissociation constant incubated for 3 mins by BLI assay.
The target in experiment [16] is T1, Replicase polyprotein 1ab. In words: Inhibition of SARS-CoV-2 papain-like protease using RLRGG-AMC as substrate.

In turn, `O=C1c2ccccc2C(=O)c2oc(-c3ccccc3)nc21` returned an IC50 in experiment [1] of 0.56 µM. For the compound `O=C1c2c(O)cccc2[C@@H]([C@@H]2O[C@H](CO)[C@@H](O)[C@H](O)[C@H]2O)c2cc(CO)cc(O)c21`, the half-maximal inhibitory concentration (IC50) in [2] is 16.1 µM; in experiment [3], 17.5 µM. With `Nc1nc2nc[nH]c2c(=S)[nH]1`, the IC50 was 0.5 µM in experiment [4], 1 µM in experiment [5] and 0.1 µM in [6]. `C[C@H](c1cccc2ccccc12)N1CCC(C(=O)NCc2cc(F)cc(NC(=O)N3CCN(C)CC3)c2)CC1`: the dissociation constant Kd in [7] stood at 2.6 µM. Turning to `O=C1c2ccccc2-c2nc3nnnn3nc21`, the IC50 in experiment [8] worked out at 0.26 µM. `C[C@H](c1ccccc1Cl)N(C)Cc1cc(O)ccc1Cl` came in with an IC50 in experiment [9] of 6.67 µM. Consider `CN(Cc1cn(C2C3=C(OC2(C)C)c2ccccc2C(=O)C3=O)nn1)C1=CC(=O)c2ccccc2C1=O` (stereo unspecified), for which the IC50 in experiment [10] stood at 2.2 µM.

In the case of `CN(Cc1cn(C2C3=C(OC2(C)C)c2ccccc2C(=O)C3=O)nn1)C1=C(Br)C(=O)c2ccccc2C1=O` (stereo unspecified), the IC50 in experiment [10] amounted to 3.1 µM; in experiment [11], 66 µM.

`C[C@@H](NC(=O)c1ccccc1CCC(=O)NNC(=O)/C(C#N)=C/C1CC1)c1cccc2ccccc12` gave an IC50 in experiment [12] of more than 200 µM.

For `OCCc1ccc(O)cc1` [4-(2-Hydroxy-ethyl)-phenol], 6.68 µM corresponded to half-maximal inhibition in experiment [13] (IC50). Turning to `O=Cc1ccc(O)cc1` [4-hydroxybenzaldehyde], the midpoint of inhibition in [13], the IC50, lay at 3.99 µM. Turning to `Cc1ccc(NC2=CC(=O)c3sc(C)nc3C2=O)cc1` [5-(N-(4-Methylphenyl)amino)-2-methyl-4,7-dioxobenzothiazole], the IC50 in experiment [8] was 0.39 µM. `Oc1c(Cl)cc(Cl)c2cccnc12` [AS-229] had an IC50 in [14] of 7.24 µM. Besides, the Kd in [15] is 4.6 µM. For the compound `O=C1c2c(O)cccc2[C@H]([C@@H]2O[C@H](CO)[C@@H](O)[C@H](O)[C@H]2O)c2cc(CO)cc(O)c21` [CHEBI:2991], the IC50 in [2] amounted to 13.2 µM; in experiment [3], 15.7 µM.

In the case of `Nc1ccc2cc3ccc(N)cc3nc2c1` [acridine-3,6-diamine], the IC50 in experiment [16] worked out at 1.66 µM.

By IC50 is commonly meant the concentration needed to halve the response being measured. In general, Kd refers to the concentration at which binding is half-saturated.
